In patent publication US20250243196A1, “CITRON KINASE INHIBITORS” (The Cleveland Clinic Foundation, priority 2021, published 2025):

How the values were obtained:
[1] = target: PTK5(h) (Homo sapiens (Human), UniProt P42685); assay: KinaseProfiler panel; assay type: biochemical; design: dose or concentration left out as unconfirmed; details: activity remaining
[2] = target: DDR2(h) (Homo sapiens (Human), UniProt Q16832); assay: KinaseProfiler panel; assay type: biochemical; design: dose or concentration left out as unconfirmed; details: activity remaining
[3] = target: CDK7/cyclinH/MAT1(h) (Homo sapiens (Human), UniProt P50613); assay: KinaseProfiler panel; assay type: biochemical; design: dose or concentration left out as unconfirmed; details: activity remaining
Sequence of CDK7/cyclinH/MAT1(h) (P50613 whole entry): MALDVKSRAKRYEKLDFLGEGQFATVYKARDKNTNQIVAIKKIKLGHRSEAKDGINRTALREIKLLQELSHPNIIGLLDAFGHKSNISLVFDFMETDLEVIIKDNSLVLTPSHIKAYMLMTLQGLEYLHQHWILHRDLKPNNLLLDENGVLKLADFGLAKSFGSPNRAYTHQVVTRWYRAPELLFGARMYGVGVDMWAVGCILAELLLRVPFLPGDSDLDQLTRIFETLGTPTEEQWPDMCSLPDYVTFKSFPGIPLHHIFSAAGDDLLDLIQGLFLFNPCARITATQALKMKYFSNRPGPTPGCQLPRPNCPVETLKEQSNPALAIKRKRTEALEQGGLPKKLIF
Sequence of CDK7/cyclinH/MAT1(h) (P51946 whole entry partner): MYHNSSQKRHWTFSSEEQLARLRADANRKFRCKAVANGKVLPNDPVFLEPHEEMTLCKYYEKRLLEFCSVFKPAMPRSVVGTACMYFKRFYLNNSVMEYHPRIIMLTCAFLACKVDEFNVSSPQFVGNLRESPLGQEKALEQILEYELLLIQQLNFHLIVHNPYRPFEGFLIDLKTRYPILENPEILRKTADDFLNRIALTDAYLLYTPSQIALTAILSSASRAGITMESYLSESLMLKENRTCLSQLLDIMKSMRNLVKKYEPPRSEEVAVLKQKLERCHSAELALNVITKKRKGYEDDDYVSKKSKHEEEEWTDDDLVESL
Sequence of CDK7/cyclinH/MAT1(h) (P51948 whole entry partner): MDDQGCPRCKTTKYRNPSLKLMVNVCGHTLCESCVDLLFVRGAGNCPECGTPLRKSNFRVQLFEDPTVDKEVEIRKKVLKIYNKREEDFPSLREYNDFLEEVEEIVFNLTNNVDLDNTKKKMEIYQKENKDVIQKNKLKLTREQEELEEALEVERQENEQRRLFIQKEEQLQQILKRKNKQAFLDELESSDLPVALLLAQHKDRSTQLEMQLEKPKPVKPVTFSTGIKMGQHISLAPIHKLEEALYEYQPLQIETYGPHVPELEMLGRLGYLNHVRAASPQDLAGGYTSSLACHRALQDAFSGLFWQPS

[4] = target: EphA4(h) (Homo sapiens (Human), UniProt P54764); assay: KinaseProfiler panel; assay type: biochemical; design: dose or concentration left out as unconfirmed; details: activity remaining
[5] = target: SIK3(h) (Homo sapiens (Human), UniProt Q9Y2K2); assay: KinaseProfiler panel; assay type: biochemical; design: dose or concentration left out as unconfirmed; details: activity remaining
[6] = target: DAPK1(h) (Homo sapiens (Human), UniProt P53355); assay: KinaseProfiler panel; assay type: biochemical; design: dose or concentration left out as unconfirmed; details: activity remaining
[7] = target: TSSK4(h) (Homo sapiens (Human), UniProt Q6SA08); assay: KinaseProfiler panel; assay type: biochemical; design: dose or concentration left out as unconfirmed; details: activity remaining
[8] = target: TSSK2(h) (Homo sapiens (Human), UniProt Q96PF2); assay: KinaseProfiler panel; assay type: biochemical; design: dose or concentration left out as unconfirmed; details: activity remaining
[9] = target: MLK3(h) (Homo sapiens (Human), UniProt Q16584); assay: KinaseProfiler panel; assay type: biochemical; design: dose or concentration left out as unconfirmed; details: activity remaining
Sequence of MLK3(h) (Q16584 whole entry): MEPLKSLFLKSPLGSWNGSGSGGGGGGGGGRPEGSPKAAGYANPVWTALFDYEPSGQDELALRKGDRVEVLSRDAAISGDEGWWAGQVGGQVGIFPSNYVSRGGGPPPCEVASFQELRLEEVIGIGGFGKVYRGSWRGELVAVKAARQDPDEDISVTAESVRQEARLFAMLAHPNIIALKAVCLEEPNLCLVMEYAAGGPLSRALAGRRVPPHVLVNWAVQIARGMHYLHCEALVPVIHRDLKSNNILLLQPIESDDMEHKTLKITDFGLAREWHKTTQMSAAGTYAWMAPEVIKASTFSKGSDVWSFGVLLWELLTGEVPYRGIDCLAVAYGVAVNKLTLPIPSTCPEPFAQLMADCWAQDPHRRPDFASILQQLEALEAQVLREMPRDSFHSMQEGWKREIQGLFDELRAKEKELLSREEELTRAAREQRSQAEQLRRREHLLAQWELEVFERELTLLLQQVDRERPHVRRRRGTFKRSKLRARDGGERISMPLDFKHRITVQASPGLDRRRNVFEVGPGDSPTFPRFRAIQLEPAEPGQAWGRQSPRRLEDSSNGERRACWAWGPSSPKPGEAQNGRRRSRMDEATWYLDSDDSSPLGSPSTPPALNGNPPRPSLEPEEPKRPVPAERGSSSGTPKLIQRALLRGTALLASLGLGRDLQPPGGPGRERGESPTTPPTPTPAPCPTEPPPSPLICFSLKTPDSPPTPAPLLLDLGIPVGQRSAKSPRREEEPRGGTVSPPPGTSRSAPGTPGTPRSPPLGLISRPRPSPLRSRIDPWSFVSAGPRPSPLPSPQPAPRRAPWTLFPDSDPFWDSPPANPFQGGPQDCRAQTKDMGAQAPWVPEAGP

[10] = target: NanoLuc-CITK (full-length human CITK) (Homo sapiens (Human), UniProt O14578); assay: NanoBRET intracellular target engagement assay; assay type: cell-based
Sequence of NanoLuc-CITK (full-length human CITK) (O14578 other isoform, or with tags, fused parts or gaps): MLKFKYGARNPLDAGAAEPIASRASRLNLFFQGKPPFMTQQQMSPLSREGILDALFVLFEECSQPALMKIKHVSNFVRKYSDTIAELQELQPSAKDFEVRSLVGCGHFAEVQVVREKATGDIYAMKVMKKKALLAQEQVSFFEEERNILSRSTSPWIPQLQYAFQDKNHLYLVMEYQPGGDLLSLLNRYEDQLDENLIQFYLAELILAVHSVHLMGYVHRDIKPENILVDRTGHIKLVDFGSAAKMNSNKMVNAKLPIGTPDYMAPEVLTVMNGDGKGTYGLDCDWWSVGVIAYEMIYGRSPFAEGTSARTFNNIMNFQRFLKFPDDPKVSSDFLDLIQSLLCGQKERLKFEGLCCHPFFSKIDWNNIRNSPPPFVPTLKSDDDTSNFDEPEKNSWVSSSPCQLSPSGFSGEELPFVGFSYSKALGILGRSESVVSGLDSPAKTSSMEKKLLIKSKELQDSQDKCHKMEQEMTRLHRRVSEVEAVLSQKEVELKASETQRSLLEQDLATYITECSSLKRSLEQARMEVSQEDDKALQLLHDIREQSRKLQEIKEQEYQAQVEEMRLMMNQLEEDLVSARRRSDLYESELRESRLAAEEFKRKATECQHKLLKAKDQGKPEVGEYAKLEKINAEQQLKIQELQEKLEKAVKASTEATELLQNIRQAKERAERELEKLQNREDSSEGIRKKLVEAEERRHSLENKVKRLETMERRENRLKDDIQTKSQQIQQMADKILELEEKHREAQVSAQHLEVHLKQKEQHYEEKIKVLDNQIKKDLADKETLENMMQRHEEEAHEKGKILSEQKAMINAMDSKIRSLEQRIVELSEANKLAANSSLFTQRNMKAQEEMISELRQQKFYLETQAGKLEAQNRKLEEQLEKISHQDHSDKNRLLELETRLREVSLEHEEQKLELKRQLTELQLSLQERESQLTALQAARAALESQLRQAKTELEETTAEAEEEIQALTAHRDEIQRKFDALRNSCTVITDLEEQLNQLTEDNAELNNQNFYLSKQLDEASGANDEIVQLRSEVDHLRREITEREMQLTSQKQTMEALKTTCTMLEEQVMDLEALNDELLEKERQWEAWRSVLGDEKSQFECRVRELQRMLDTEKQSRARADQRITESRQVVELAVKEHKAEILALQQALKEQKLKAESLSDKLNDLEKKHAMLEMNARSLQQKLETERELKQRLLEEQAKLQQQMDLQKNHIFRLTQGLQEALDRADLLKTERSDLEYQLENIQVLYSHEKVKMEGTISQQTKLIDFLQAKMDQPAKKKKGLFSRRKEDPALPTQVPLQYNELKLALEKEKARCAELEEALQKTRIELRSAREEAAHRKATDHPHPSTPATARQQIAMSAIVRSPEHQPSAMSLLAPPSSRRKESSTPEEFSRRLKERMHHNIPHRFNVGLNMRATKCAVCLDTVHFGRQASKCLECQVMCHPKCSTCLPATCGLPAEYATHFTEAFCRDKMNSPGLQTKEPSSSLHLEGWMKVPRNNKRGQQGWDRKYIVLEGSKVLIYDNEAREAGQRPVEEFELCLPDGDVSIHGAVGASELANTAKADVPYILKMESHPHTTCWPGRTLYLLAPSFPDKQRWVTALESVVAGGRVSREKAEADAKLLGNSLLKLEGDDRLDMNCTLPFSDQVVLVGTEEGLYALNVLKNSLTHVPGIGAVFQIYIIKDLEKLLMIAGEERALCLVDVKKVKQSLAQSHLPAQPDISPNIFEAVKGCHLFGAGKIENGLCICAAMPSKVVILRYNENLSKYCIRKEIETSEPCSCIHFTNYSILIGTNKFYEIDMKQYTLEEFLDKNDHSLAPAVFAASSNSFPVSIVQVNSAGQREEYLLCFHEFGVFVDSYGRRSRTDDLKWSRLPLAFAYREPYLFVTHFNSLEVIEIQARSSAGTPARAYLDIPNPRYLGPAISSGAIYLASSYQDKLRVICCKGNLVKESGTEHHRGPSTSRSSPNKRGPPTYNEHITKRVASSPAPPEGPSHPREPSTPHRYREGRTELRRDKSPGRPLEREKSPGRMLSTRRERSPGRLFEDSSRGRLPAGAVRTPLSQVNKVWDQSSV
Description: In-cell Kd values were evaluated with a NanoBRET Target Engagement Assay essentially as recommended by the manufacturer (Promega Corporation—for details see https://www.promega.com/resources/technologies/nanoluc-luciferase-enzyme/cellular-target-engagement/).
HEK293T cells were transfected with 5.0 μg/mL sterile NanoLuc-CITK DNA, 5.0 μg/mL Transfection Carrier DNA, and 30 μL/mL FugeneHD® (Promega) in Opti-Mem™ (Thermo) media at a cell density of 250,000 cells/mL. […] 5 μL of the 25× Tracer K10 solution was added to each well. Next, designated inhibitors were prepared from powder as 10 mM DMSO stocks and then further diluted to 10× the final assay concentration in Opti-Mem™. 12-pt dose-response curves were prepared by 3×-serial dilution. […] A 3× Complete Substrate+Inhibitor solution, containing 6 mL of Opti-Mem™, 36 μL of NanoBRET Nano-Glo Substrate, and 12 μL Extracellular NanoLuc Inhibitor was freshly prepared for each plate. 50 μL of the 3× Complete Substrate+Inhibitor solution was added to all wells and the plate was incubated for 2 min with 500 RPM shaking. The bottom of the plates were covered with black plate seals and then measured on a Cytation 5 plate reader (Biotek) with a NanoBRET Filter Cube (Biotek; 450/50 emission & 610LP emission). Background corrected BRET ratios (in mBU) were calculated in Excel and IC50's were subsequently extracted using four-parameter non-linear regression in GraphPad Prism 8.

[11] = target: EphA7(h) (Homo sapiens (Human), UniProt Q15375); assay: KinaseProfiler panel; assay type: biochemical; design: dose or concentration left out as unconfirmed; details: activity remaining
[12] = target: MAPK2(h) (Homo sapiens (Human), UniProt P28482); assay: KinaseProfiler panel; assay type: biochemical; design: dose or concentration left out as unconfirmed; details: activity remaining
[13] = target: NEK1(h) (Homo sapiens (Human), UniProt Q96PY6); assay: KinaseProfiler panel; assay type: biochemical; design: dose or concentration left out as unconfirmed; details: activity remaining
[14] = target: CK1α(h) (Homo sapiens (Human), UniProt P48729); assay: KinaseProfiler panel; assay type: biochemical; design: dose or concentration left out as unconfirmed; details: activity remaining
[15] = target: PDGFRβ(h) (Homo sapiens (Human), UniProt P09619); assay: KinaseProfiler panel; assay type: biochemical; design: dose or concentration left out as unconfirmed; details: activity remaining
Sequence of PDGFRβ(h) (P09619 33-1106): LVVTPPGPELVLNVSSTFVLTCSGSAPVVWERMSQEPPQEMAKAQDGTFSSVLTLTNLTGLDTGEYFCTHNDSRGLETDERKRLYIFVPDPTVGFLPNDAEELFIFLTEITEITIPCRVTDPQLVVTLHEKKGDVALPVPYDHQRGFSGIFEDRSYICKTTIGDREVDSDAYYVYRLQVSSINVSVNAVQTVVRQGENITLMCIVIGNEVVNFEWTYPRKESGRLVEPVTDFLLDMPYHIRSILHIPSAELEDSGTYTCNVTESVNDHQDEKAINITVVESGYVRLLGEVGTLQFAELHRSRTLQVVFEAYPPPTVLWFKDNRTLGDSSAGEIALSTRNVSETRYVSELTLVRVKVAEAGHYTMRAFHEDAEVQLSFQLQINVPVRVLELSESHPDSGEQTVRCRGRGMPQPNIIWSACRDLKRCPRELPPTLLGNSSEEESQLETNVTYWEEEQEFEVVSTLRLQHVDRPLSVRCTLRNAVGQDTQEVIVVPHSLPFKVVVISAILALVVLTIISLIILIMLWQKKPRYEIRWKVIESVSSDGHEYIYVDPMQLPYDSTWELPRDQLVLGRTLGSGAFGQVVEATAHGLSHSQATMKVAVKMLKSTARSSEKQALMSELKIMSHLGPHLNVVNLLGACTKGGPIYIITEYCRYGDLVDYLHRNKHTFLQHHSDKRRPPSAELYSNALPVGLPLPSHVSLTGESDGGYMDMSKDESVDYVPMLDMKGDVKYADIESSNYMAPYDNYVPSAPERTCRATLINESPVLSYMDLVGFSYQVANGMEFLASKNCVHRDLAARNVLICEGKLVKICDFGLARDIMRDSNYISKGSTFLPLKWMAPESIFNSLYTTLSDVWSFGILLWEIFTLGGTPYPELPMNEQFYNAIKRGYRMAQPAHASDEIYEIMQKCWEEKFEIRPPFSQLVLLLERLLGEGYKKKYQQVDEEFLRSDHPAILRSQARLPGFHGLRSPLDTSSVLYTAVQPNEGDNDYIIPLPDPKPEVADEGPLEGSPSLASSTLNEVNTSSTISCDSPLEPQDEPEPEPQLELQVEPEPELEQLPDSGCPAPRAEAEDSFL

[16] = target: CDKL4(h) (Homo sapiens (Human), UniProt Q5MAI5); assay: KinaseProfiler panel; assay type: biochemical; design: dose or concentration left out as unconfirmed; details: activity remaining
[17] = target: CDK1/cyclinB(h) (Homo sapiens (Human), UniProt P06493); assay: KinaseProfiler panel; assay type: biochemical; design: dose or concentration left out as unconfirmed; details: activity remaining
[18] = target: PDHK2(h) (Homo sapiens (Human), UniProt Q15119); assay: KinaseProfiler panel; assay type: biochemical; design: dose or concentration left out as unconfirmed; details: activity remaining
[19] = target: SBK1(h) (Homo sapiens (Human), UniProt Q52WX2); assay: KinaseProfiler panel; assay type: biochemical; design: dose or concentration left out as unconfirmed; details: activity remaining
[20] = target: PKCζ(h) (Homo sapiens (Human), UniProt Q05513); assay: KinaseProfiler panel; assay type: biochemical; design: dose or concentration left out as unconfirmed; details: activity remaining
[21] = target: TYK2(h) (Homo sapiens (Human), UniProt P29597); assay: KinaseProfiler panel; assay type: biochemical; design: dose or concentration left out as unconfirmed; details: activity remaining
[22] = target: DNA-PK(h) (Homo sapiens (Human), UniProt P78527); assay: KinaseProfiler panel; assay type: biochemical; design: dose or concentration left out as unconfirmed; details: activity remaining
[23] = target: SAPK2a(h) (Homo sapiens (Human), UniProt Q16539); assay: KinaseProfiler panel; assay type: biochemical; design: dose or concentration left out as unconfirmed; details: activity remaining
[24] = target: PKBα(h) (Homo sapiens (Human), UniProt P31749); assay: KinaseProfiler panel; assay type: biochemical; design: dose or concentration left out as unconfirmed; details: activity remaining
[25] = target: TAO1(h) (Homo sapiens (Human), UniProt Q7L7X3); assay: KinaseProfiler panel; assay type: biochemical; design: dose or concentration left out as unconfirmed; details: activity remaining
[26] = target: TGFBR2(h) (Homo sapiens (Human), UniProt P37173); assay: KinaseProfiler panel; assay type: biochemical; design: dose or concentration left out as unconfirmed; details: activity remaining

For `Cc1cc2c(-c3ccc(NC(=O)[C@H](N)CC(C)(C)C)cc3C)ccnc2[nH]1` [Compound F-90, (2R)-2-Amino-4,4-dimethyl-N-[3-methyl-4-(2-methyl-1H-pyrrolo[2,3-b]pyridin-4-yl)phenyl]pentanamide], which “% Activity” value [1] is on record?
The value was 90%.

What about the “% Activity” value [2] of the same compound?
The value was 85%.

What about the “% Activity” value [3] of the same compound?
Its value is 95%.

And the “% Activity” value [4]?
The value was 92%.

What about the “% Activity” value [5] of the same compound?
The value was 105%.

And the “% Activity” value [6]?
Its value is 82%.

What about the “% Activity” value [7] of the same compound?
Its value is 117%.

What about the “% Activity” value [8] of the same compound?
Its value is 113%.

And the “% Activity” value [9]?
The value was 91%.

What about the Kd [10] of the same compound?
The Kd was 9.9 nM.

What about the IC50 ([10]; HEK293T cells transfected with NanoLuc-CITK, Tracer K10 1 μM, 2 hours) of the same compound?
The IC50 was 53 nM.

And the “% Activity” value [11]?
The value was 114%.

And the “% Activity” value [12]?
Its value is 109%.

And the “% Activity” value [13]?
Its value is 94%.

And the “% Activity” value [14]?
Its value is 97%.

And the “% Activity” value [15]?
Its value is 105%.

What about the “% Activity” value [16] of the same compound?
The value was 104%.

And the “% Activity” value [17]?
The value was 94%.

And the “% Activity” value [18]?
The value was 87%.

What about the “% Activity” value [19] of the same compound?
The value was 97%.

And the “% Activity” value [20]?
The value was 88%.

And the “% Activity” value [21]?
Its value is 103%.

What about the “% Activity” value [22] of the same compound?
The value was 107%.

And the “% Activity” value [23]?
Its value is 94%.

And the “% Activity” value [24]?
Its value is 87%.

What about the “% Activity” value [25] of the same compound?
Its value is 83%.

And the “% Activity” value [26]?
The value was 96%.
